The values that follow come from US9980943B2, “Methods of treating muscular dystrophy” (BOARD OF REGENTS OF THE NEVADA SYSTEM OF HIGHER EDUCATION, …, priority 2013, dated 2018).

Format in all cases: cell-based, mouse
Assay [1] relates to β-galactosidase in CMV-LacZ C2C12 myotubes. Kind of assay: CMV-LacZ secondary screen in C2C12 myotubes (β-Gal stabilizing assay). The conditions noted are these: C2C12 CMV-LacZ myotubes, fold relative to DMSO. The procedure, abridged:
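Stable CMV-LacZ C2C12 clone; six-point curve 0.5–40 μM; duplicates.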

Assay [2] deals with α7 integrin (LacZ reporter in α7βgal+/− myoblasts). Description: Myoblast α7+/LacZ integrin FDG assay (Burkin assay in myoblasts, 96-well). Particulars: α7+/LacZ myoblasts, 96-well.
Assay [3] concerns β-galactosidase in CMV-LacZ C2C12 myoblasts. Kind of assay: CMV-LacZ secondary screen in C2C12 myoblasts (β-Gal stabilizing assay). The conditions noted are these: CMV-LacZ C2C12 myoblasts. In short, it runs like this:
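C2C12 myoblasts stably carrying a linearized CMV-driven LacZ construct, clone chosen by β-gal level in the myoblast FDG assay. Compounds tested in 96-well dose-response at 0.5, 1, 5, 10, 20 and 40 μM, N=2 replicates per point, to detect β-gal stabilization.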

For assay [4], the system named is α7 integrin (LacZ reporter in α7+/LacZ myotubes). Kind of assay: Myotube α7 integrin FDG assay (Burkin assay in myotubes, 96-well). The conditions noted are these: myotubes.

Structures are written as SMILES.

For `CC1CCCCC1NC(=O)CSc1nnc(COc2ccc(Cl)cc2)o1` (stereo not drawn) [MLS000948055-01], the “CMV-LACZ in Myotubes, signal relative to DMSO” value was 1.0895 in assay [1] (0.5 uM); 0.9638 in assay [1] (1 uM); 1.2519 in assay [1] (5 uM); 1.1022 in assay [1] (10 uM); 1.2212 in assay [1] (20 uM); 1.0753 in assay [1] (40 uM). For the same compound, the “Burkin Assay in Myoblasts, signal relative to DMSO” value was found to be 1.328 in assay [2] (0.5 uM); 1.053 in assay [2] (1 uM); 1.136 in assay [2] (5 uM); 0.8986 in assay [2] (10 uM); 0.8213 in assay [2] (20 uM); 0.5867 in assay [2] (40 uM). Also, the “CMV-LACZ in Myoblasts (β-galactosidase activity relative to DMSO)” value in assay [3] (0.5 uM) is listed as 0.7540; in assay [3] (1 uM) it was 0.9674; in assay [3] (5 uM), 1.0787; in assay [3] (10 uM), 1.0993; in assay [3] (20 uM) it was 0.5407; in assay [3] (40 uM) it was 0.5522. Also, the “Burkin Assay in Myotubes, α7 integrin LacZ reporter signal relative to DMSO” value in assay [4] (0.5 uM) worked out at 1.067; in assay [4] (1 uM), 1.054; in assay [4] (5 uM) it was 0.9053; in assay [4] (10 uM), 0.8264; in assay [4] (20 uM), 0.98; in assay [4] (40 uM), 0.7514.

`CC1(C)Cc2ccccc2-c2nc3n(c(=O)c21)CCS3` [MLS000711491-01]: the “CMV-LACZ in Myotubes, signal relative to DMSO” value in assay [1] (0.5 uM) was 0.9495; in assay [1] (1 uM) it was 0.9095; in assay [1] (5 uM), 0.9993; in assay [1] (10 uM) it was 0.8645; in assay [1] (20 uM) it was 1.1318; in assay [1] (40 uM), 0.9929. Also, the “Burkin Assay in Myoblasts, signal relative to DMSO” value is reported as 1.214 in assay [2] (0.5 uM); 1.0159 in assay [2] (1 uM); 1.02 in assay [2] (5 uM); 1.024 in assay [2] (10 uM); 0.7949 in assay [2] (20 uM); 0.5793 in assay [2] (40 uM). Further, the “CMV-LACZ in Myoblasts (β-galactosidase activity relative to DMSO)” value in assay [3] (0.5 uM) is given as 1.0889; in assay [3] (1 uM) it was 1.1060; in assay [3] (5 uM) it was 0.9088; in assay [3] (10 uM) it was 1.0199; in assay [3] (20 uM), 1.5063; in assay [3] (40 uM), 0.7800. For the same compound, the “Burkin Assay in Myotubes, α7 integrin LacZ reporter signal relative to DMSO” value in assay [4] (0.5 uM) is 1.07; in assay [4] (1 uM) it was 1.062; in assay [4] (5 uM), 0.9629; in assay [4] (10 uM) it was 0.9462; in assay [4] (20 uM), 0.671; in assay [4] (40 uM), 0.579.
